Source: patent publication US20130040935A1, “CYCLIC KETO-ENOLS FOR THERAPY” (BAYER INTELLECTUAL PROPERTY GMBH, priority 2010, published 2013)
Where two headings read alike, the source gives them in different places.

Legend:
[1] = biological target: human ACC2 (acetyl-coenzyme A carboxylase 2) (Homo sapiens, UniProt O00763); experiment: Human ACC2 enzyme assay, Assay B2 (ADP-Glo);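 further: human ACC2 activity read as ADP product, detected by luciferase glow luminescence after residual ATP removal, enzyme near 2 ng/µl in linear range, detection steps at 22 °C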
Sequence of human ACC2 (acetyl-coenzyme A carboxylase 2) (O00763 27-2458 limits assumed): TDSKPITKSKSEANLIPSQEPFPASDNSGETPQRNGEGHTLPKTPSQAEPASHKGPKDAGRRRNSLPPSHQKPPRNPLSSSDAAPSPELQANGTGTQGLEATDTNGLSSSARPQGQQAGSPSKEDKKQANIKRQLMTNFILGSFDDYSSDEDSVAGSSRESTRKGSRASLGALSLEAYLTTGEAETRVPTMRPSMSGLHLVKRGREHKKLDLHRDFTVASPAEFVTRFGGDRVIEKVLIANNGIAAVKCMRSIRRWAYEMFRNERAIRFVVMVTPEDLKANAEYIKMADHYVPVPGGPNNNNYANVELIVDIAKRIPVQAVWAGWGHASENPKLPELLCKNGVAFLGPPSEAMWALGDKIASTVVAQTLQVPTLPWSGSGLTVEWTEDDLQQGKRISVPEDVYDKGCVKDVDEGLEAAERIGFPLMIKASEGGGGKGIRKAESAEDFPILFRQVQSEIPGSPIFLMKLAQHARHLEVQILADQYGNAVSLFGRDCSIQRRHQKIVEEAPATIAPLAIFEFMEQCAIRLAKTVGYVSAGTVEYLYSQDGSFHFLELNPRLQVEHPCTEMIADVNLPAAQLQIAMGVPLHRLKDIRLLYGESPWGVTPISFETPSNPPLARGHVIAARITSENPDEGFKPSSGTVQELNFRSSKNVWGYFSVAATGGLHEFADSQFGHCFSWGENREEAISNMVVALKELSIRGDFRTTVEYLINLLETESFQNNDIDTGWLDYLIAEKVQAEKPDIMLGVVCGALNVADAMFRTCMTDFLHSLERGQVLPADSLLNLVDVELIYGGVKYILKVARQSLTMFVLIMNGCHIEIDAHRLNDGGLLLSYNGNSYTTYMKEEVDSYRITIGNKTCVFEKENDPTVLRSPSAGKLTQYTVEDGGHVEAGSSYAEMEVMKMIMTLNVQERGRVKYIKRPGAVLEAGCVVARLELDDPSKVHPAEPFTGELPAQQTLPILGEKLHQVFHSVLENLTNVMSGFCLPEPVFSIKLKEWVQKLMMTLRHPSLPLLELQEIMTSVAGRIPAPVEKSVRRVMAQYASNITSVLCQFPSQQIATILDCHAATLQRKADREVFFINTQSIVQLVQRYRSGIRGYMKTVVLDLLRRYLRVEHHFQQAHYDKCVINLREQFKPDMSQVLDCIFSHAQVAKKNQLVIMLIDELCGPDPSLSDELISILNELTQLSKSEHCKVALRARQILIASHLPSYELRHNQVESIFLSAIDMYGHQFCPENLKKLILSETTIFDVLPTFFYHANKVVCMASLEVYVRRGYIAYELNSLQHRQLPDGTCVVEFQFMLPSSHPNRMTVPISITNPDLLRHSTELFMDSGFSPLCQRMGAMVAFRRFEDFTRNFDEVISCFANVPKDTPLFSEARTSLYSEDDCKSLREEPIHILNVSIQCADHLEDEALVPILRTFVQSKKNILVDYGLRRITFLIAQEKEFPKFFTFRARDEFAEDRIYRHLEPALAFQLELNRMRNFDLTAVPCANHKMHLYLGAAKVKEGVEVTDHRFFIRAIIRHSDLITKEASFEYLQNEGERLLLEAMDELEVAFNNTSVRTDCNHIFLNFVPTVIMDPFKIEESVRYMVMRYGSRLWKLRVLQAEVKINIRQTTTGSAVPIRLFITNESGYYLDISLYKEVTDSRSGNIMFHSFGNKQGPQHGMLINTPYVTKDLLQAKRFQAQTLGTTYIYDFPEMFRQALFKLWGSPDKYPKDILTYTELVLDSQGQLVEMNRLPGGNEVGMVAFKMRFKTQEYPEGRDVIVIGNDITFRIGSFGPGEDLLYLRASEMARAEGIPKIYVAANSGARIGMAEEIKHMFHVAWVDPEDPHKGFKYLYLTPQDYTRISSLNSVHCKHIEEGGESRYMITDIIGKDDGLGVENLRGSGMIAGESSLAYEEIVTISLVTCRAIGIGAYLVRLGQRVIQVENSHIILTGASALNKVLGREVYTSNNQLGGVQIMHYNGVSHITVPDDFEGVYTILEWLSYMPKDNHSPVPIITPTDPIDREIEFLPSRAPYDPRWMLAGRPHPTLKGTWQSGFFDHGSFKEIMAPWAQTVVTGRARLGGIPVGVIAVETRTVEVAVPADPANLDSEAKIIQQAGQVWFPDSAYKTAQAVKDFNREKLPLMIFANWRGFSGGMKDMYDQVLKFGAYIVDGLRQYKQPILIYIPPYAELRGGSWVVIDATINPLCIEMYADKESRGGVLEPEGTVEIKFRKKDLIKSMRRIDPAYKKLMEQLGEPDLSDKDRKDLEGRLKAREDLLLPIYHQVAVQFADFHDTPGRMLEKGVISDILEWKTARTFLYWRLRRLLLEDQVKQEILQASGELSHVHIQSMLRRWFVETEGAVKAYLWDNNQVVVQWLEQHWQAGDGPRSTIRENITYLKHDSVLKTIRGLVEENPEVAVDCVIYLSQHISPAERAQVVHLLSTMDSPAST

[2] = biological target: T1, human ACC1 (acetyl-coenzyme A carboxylase alpha transcript variant 1) (Homo sapiens, UniProt Q13085); experiment: Human ACC1 enzyme assay, Assay B1 (ADP-Glo); format: biochemical
T1 construct: FLAG (C); made in house; host or cells: baculovirus-infected insect cells (Hi5)

[3] = Assay B1, read-out: ACC 1 (=B1) IC50

IC50 [2, 3] [nM] | Compound | IC50 [1] [nM] | IC50 [2] [nM]
11800 | CCOCCO[C@@H]1CC[C@@]2(C1)NC(=O)C(c1cc(-c3ccc(Cl)cc3)ccc1C)=C2O (relative stereo) [1-50, rel-(5R,7S)-3-(4′-chloro-4-methylbiphenyl-3-yl)-7-(2-ethoxyethoxy)-4-hydroxy-1-azaspiro[4.4]non-3-en-2-one] | > 20000 | –
– | COCCO[C@@H]1CCC[C@]2(C1)NC(=O)C(c1cc(-c3ccc(Cl)cc3)ccc1Cl)=C2O (relative stereo) [1-74, rel-(5R,7R)-3-(4,4′-dichlorobiphenyl-3-yl)-4-hydroxy-7-(2-methoxyethoxy)-1-azaspiro[4.5]dec-3-en-2-one] | > 20000 | 2420
– | Cc1ccc(-c2ccc(Cl)cc2)cc1C1=C(O)CN(C(C)C)C1=O [1-17, 3-(4′-chloro-4-methylbiphenyl-3-yl)-4-hydroxy-1-(propan-2-yl)-1,5-dihydro-2H-pyrrol-2-one] | 11400 | 553
982 | Cc1ccc(-c2ccc(Cl)cc2)cc1C1=C(O)CN(C2CC2)C1=O [1-18, 3-(4′-chloro-4-methylbiphenyl-3-yl)-1-cyclopropyl-4-hydroxy-1,5-dihydro-2H-pyrrol-2-one] | 16400 | –
532 | Cc1ccc(-c2ccc(Cl)cc2)cc1C1=C(O)C(C)N(C(C)C)C1=O (centres unmarked) [1-19, 3-(4′-chloro-4-methylbiphenyl-3-yl)-4-hydroxy-5-methyl-1-(propan-2-yl)-1,5-dihydro-2H-pyrrol-2-one] | ≥ 20000 | –
288 | Cc1ccc(-c2ccc(Cl)cc2)cc1C1=C(O)C2(Cc3ccccc3C2)NC1=O [1-25, 4′-(4′-chloro-4-methylbiphenyl-3-yl)-3′-hydroxy-1,3-dihydrospiro[inden-2,2′-pyrrol]-5′(1′H)-one] | 3780 | –
438 | CCOC1CCC2(CC1)NC(=O)C(c1cc(-c3ccc(Cl)cc3)ccc1C)=C2O (centres unmarked) [1-28, 3-(4′-chloro-4-methylbiphenyl-3-yl)-8-ethoxy-4-hydroxy-1-azaspiro[4.5]dec-3-en-2-one] | 2110 | –
– | Cc1ccc(-c2ccc(F)cc2)c(C)c1C1=C(O)C2(CCC(OCC(F)(F)F)CC2)NC1=O (centres unmarked) [1-31, 3-(4′-fluoro-2,4-dimethylbiphenyl-3-yl)-4-hydroxy-8-(2,2,2-trifluoroethoxy)-1-azaspiro[4.5]dec-3-en-2-one] | 7890 | 811
1320 | Cc1ccc(-c2ccc(F)cc2)c(C)c1C1=C(O)C2(CCCCC2)NC1=O [1-40, 3-(4′-fluoro-2,4-dimethylbiphenyl-3-yl)-4-hydroxy-1-azaspiro[4.5]dec-3-en-2-one] | > 20000 | –
– | COCC1(C)NC(=O)C(c2cc(-c3ccc(Cl)cc3)ccc2C)=C1O (centres unmarked) [1-46, 3-(4′-chloro-4-methylbiphenyl-3-yl)-4-hydroxy-5-(methoxymethyl)-5-methyl-1,5-dihydro-2H-pyrrol-2-one] | > 20000 | 1130
924 | COCCC1CCCC2(C1)NC(=O)C(c1c(C)ccc(-c3ccc(Cl)cc3)c1C)=C2O (centres unmarked) [1-55, 3-(4′-chloro-2,4-dimethylbiphenyl-3-yl)-4-hydroxy-7-(2-methoxyethyl)-1-azaspiro[4.5]dec-3-en-2-one] | 3290 | –
– | O=C1NC2(CCC3(CC2)OCCCO3)C(O)=C1c1cc(-c2ccc(Cl)cc2)ccc1Cl [1-58, 3-(4,4′-dichlorobiphenyl-3-yl)-4-hydroxy-9,13-dioxa-1-azadispiro[4.2.5.2]pentadec-3-en-2-one] | 19900 | 434
– | Cc1ccc(-c2ccc(Cl)cc2)cc1C1=C(O)C2(CCC3(CC2)OCCCO3)NC1=O [1-59, 3-(4′-chloro-4-methylbiphenyl-3-yl)-4-hydroxy-9,13-dioxa-1-azadispiro[4.2.5.2]pentadec-3-en-2-one] | 11600 | 261
– | Cc1ccc(-c2ccc(Cl)cc2)cc1C1=C(O)C2(CCC3(CC2)OCCO3)NC1=O [1-60, 11-(4′-chloro-4-methylbiphenyl-3-yl)-12-hydroxy-1,4-dioxa-9-azadispiro[4.2.4.2]tetradec-11-en-10-one] | 5990 | 189
– | O=C1NC2(CCC3(CC2)OCCO3)C(O)=C1c1cc(-c2ccc(Cl)cc2)ccc1Cl [1-61, 11-(4,4′-dichlorobiphenyl-3-yl)-12-hydroxy-1,4-dioxa-9-azadispiro[4.2.4.2]tetradec-11-en-10-one] | 9040 | 88
385 | Cc1ccc(-c2ccc(Cl)cc2)c(C)c1C1=C(O)C2(CCC3(CC2)OCC(C)O3)NC1=O (centres unmarked) [1-62, 11-(4′-chloro-2,4-dimethylbiphenyl-3-yl)-12-hydroxy-2-methyl-1,4-dioxa-9-azadispiro[4.2.4.2]tetradec-11-en-10-one] | 5740 | –
– | Cc1ccc(-c2ccc(Cl)cc2)cc1C1=C(O)C2(CCC3(CC2)OCC(C)O3)NC1=O (centres unmarked) [1-63, 11-(4′-chloro-4-methylbiphenyl-3-yl)-12-hydroxy-2-methyl-1,4-dioxa-9-azadispiro[4.2.4.2]tetradec-11-en-10-one] | 7270 | 277
– | Cc1ccc(-c2ccc(Cl)cc2)cc1C1=C(O)C2(CCC3(CC2)OC(C)C(C)O3)NC1=O (centres unmarked) [1-64, 11-(4′-chloro-4-methylbiphenyl-3-yl)-12-hydroxy-2,3-dimethyl-1,4-dioxa-9-azadispiro[4.2.4.2]tetradec-11-en-10-one] | > 20000 | 571
1160 | CC1(C)COC2(CCC3(CC2)NC(=O)C(c2cc(-c4ccc(Cl)cc4)ccc2Cl)=C3O)OC1 [1-65, 3-(4,4′-dichlorobiphenyl-3-yl)-4-hydroxy-11,11-dimethyl-9,13-dioxa-1-azadispiro[4.2.5.2]pentadec-3-en-2-one] | 14700 | –

IC50 [2, 3] [nM] | Compound | IC50 [1] [nM] | IC50 [2] [nM]
– | COC1CCC2(CC1)NC(=O)C(c1cc(-c3ccc(Cl)c(Cl)c3)ccc1C)=C2O (centres unmarked) [1-81, 3-(3′,4′-dichloro-4-methylbiphenyl-3-yl)-4-hydroxy-8-methoxy-1-azaspiro[4.5]dec-3-en-2-one] | 2610 | –
1280 | Cc1ccc(-c2ccc(Cl)cc2)cc1C1C(=O)N2CCOCCN2C1=O [8-6, 8-(4′-chloro-4-methylbiphenyl-3-yl)tetrahydro-7H-pyrazolo[1,2-d][1,4,5]oxadiazepine-7,9(8H)-dione] | – | –
– | Cc1ccc(-c2ccc(F)cc2)c(C)c1C1C(=O)N2CCOCCN2C1=O [8-7, 8-(4′-fluoro-2,4-dimethylbiphenyl-3-yl)tetrahydro-7H-pyrazolo[1,2-d][1,4,5]oxadiazepine-7,9(8H)-dione] | – | 6210
– | O=C1C(c2cc(-c3ccc(Cl)cc3Cl)ccc2Cl)C(=O)N2CCOCCN12 [8-9, 8-(2′,4,4′-trichlorobiphenyl-3-yl)tetrahydro-7H-pyrazolo[1,2-d][1,4,5]oxadiazepine-7,9(8H)-dione] | – | 682
– | O=C1C(c2cc(-c3ccc(Cl)c(Cl)c3)ccc2Cl)C(=O)N2CCOCCN12 [8-10, 8-(3′,4,4′-trichlorobiphenyl-3-yl)tetrahydro-7H-pyrazolo[1,2-d][1,4,5]oxadiazepine-7,9(8H)-dione] | – | 2350
– | O=C1C(c2cc(-c3ccc(F)cc3F)ccc2Cl)C(=O)N2CCOCCN12 [8-11, 8-(4-chloro-2′,4′-difluorobiphenyl-3-yl)tetrahydro-7H-pyrazolo[1,2-d][1,4,5]oxadiazepine-7,9(8H)-dione] | – | 1360
783 | Cc1ccc(-c2ccc(Cl)cc2)cc1C1C(=O)N2CC(C)(F)CN2C1=O [8-12, 2-(4′-chloro-4-methylbiphenyl-3-yl)-6-fluoro-6-methyldihydro-1H,5H-pyrazolo[1,2-a]pyrazole-1,3(2H)-dione] | – | –
1360 | CC1(F)CN2C(=O)C(c3cc(-c4ccc(Cl)cc4)ccc3Cl)C(=O)N2C1 [8-13, 2-(4,4′-dichlorobiphenyl-3-yl)-6-fluoro-6-methyldihydro-1H,5H-pyrazolo[1,2-a]pyrazole-1,3(2H)-dione] | – | –
7460 | Cc1ccc(-c2ccc(Cl)cc2)cc1C1C(=O)N(C)N(C)C1=O [8-14, 4-(4′-chloro-4-methylbiphenyl-3-yl)-1,2-dimethyl-1H-pyrazole-3,5(2H,4H)-dione] | – | –
5600 | CN1C(=O)C(c2cc(-c3ccc(Cl)cc3)ccc2Cl)C(=O)N1C [8-15, 4-(4,4′-dichlorobiphenyl-3-yl)-1,2-dimethyl-1H-pyrazole-3,5(2H,4H)-dione] | – | –
– | Cc1ccc(-c2ccc(Cl)cc2)cc1C1C(=O)N2C3CCC(C3)N2C1=O (centres unmarked) [8-16, 2-(4′-chloro-4-methylbiphenyl-3-yl)tetrahydro-1H-5,8-methanopyrazolo[1,2-a]pyridazine-1,3(2H)-dione] | – | 593
1450 | O=C1C(c2cc(-c3ccc(Cl)cc3)ccc2Cl)C(=O)N2C3CCC(C3)N12 (centres unmarked) [8-17, 2-(4,4′-dichlorobiphenyl-3-yl)tetrahydro-1H-5,8-methanopyrazolo[1,2-a]pyridazine-1,3(2H)-dione] | – | –
661 | Cc1ccc(-c2ccc(Cl)cc2)cc1-c1c(O)c2ccccc2[nH]c1=O [9-5, 3-(4′-chloro-4-methylbiphenyl-3-yl)-4-hydroxyquinolin-2(1H)-one] | – | –
174 | Cc1ccc(-c2ccc(Cl)cc2)cc1-c1c(O)c2ccc(F)cc2[nH]c1=O [9-8, 3-(4′-chloro-4-methylbiphenyl-3-yl)-7-fluoro-4-hydroxyquinolin-2(1H)-one] | – | –
2940 | Cc1ccc(-c2ccc(F)cc2)cc1-c1c(O)c2ccc(F)cc2[nH]c1=O [9-9, 7 fluoro-3-(4′-fluoro-4-methylbiphenyl-3-yl)-4-hydroxyquinolin-2(1H)-one] | – | –
1410 | Cc1ccc(-c2ccc(C(F)(F)F)cc2)cc1-c1c(O)c2ccc(F)cc2[nH]c1=O [9-10] | – | –
– | CC1(C)OC(=O)C(c2cc(-c3ccc(Cl)cc3)ccc2Cl)=C(O)C1(C)C [10-1, 3-(4,4′-dichlorobiphenyl-3-yl)-4-hydroxy-5,5,6,6-tetramethyl-5,6-dihydro-2H-pyran-2-one] | – | 1070
– | Cc1ccc(-c2ccc(Cl)cc2)cc1C1=C(O)C(C)(C)C(C)(C)OC1=O [10-2, 3-(4′-chloro-4-methylbiphenyl-3-yl)-4-hydroxy-5,5,6,6-tetramethyl-5,6-dihydro-2H-pyran-2-one] | – | 760
